Legend:
Assay type in all cases: cell-based, mouse
[1] = system: dissociated cortical neurons from E16.5 mice; test: parkin siRNA knockdown in kainate-treated primary cortical cultures, Western blot; details: 25 nM siRNA, then 500 μM kainate 24 h
Method: (A) Insect cells were co-infected with baculoviruses expressing Flag-hSel-10 (110 kDa) or Flag-β-TrCP, GST-parkin, HA-CDK2, and either His6-cyclin E or His6-cyclin A1 (50 kDa). Cyclin-E- or cyclin-A1-associated complexes were isolated from cell lysates by nickel-agarose pull-downs, and analyzed by Western blotting, as indicated. (B) Flag-parkin-associated complexes (immunoprecipitated from HeLa cells transfected with Flag-tagged wild-type or T240R mutant parkin) were incubated with recombinant His6-cyclin E, HA-CDK2, E1, UbcH7, and ubiquitin, in the presence of an ATP-regenerating system. Recombinant His6-cyclin E generated in insect cells appears as a 51 -kDa band (arrow) and a minor contaminating species at 95-kDa. The asterisk indicates the position of an immunoglobulin heavy chain. (C) Parkin deficiency leads to cyclin E accumulation. Dissociated cortical neurons from E16.5 mice were cultured as described (see Examples), transfected with 25 nM parkin siRNA or control (DAT) siRNA, and then treated for 24 h with 500 μM kainate. […]
(§1) Cerebellar granule neurons from P6 mice were purified and transfected essentially as described (Scheiffele et al., Neuroligin expressed in nonneuronal cells triggers presynaptic development in contacting axons. Cell, 101:657-69, 2000). […] Cells were treated for 24 h with or without kainate (250 or 500 μM as indicated; Sigma) or MPP^+ (1 or 10 μM as indicated; Sigma), stained for 20 min with 0.5 μg/ml Hoechst 33342 (Sigma), and visualized by fluorescence microscopy. For granule cell assays, at least 100 cells in two 20× fields were scored in duplicate for GFP and/or Hoechst signal. […] Cells were washed, incubated for 1 h at room temperature with appropriately-labeled secondary antibodies, and visualized by fluorescence microscopy. For midbrain culture experiments, DAT-specific immunoreactivity (pixels), and cytoplasmic parkin and cyclin E immunoreactivity (mean pixel density), were quantified in triplicate, across nine fields of view, at 20× using Image software (Scion). […]

[2] = system: E13.5 primary culture midbrain dopamine neurons; test: parkin siRNA knockdown in primary midbrain dopamine neuron cultures with kainate or MPP+, immunofluorescence and Hoechst
Method: Dissociated midbrain cultures from El 3.5 mice were prepared as described (see Examples), transfected with 25 nM parkin or control (SERT) siRNA, and treated for 24 h with 250 μM kainate (A-X) or 1 μM MPP^+ (U—X). Cells were treated with Hoechst dye, fixed, and stained with rabbit polyclonal antibodies against either mouse parkin or cyclin E (green) and a rat monoclonal antibody against DAT (red). Immunostaining and apoptotic nuclei were visualized by fluorescence microscopy. Arrows point to examples of DAT-positive, cyclin-E-positive neurons (S) and DAT-positive neurons with apoptotic (Hoechst-positive) nuclei (I, J, and T). Total DAT-specific immunoreactivity (pixels), across 9 fields of view at 20×, was quantified in triplicate using Image software (Scion). Cytoplasmic parkin and cyclin E immunoreactivity (mean pixel density), in DAT-positive neurons, were similarly quantified. Data are shown as the mean±SEM. Statistical significance was assessed using one-way ANOVA with Tukey-Kramer post-hoc tests between each group. *=p<0.01; scale bar=150 μm
FIG. 10 further illustrates parkin/cyclin E interaction. […] Total RNA was extracted from granule cell cultures transfected with parkin or vector alone (see FIG. 5), and from frontal cortex tissue from parkin-deficient ARPD (or age-matched control; see FIG. 4). Cyclin E and β-actin mRNA levels were determined by quantitative RT-PCR, as described (Troy et al., Death in the balance: alternative participation of the caspase-2 and -9 pathways in neuronal death induced by nerve growth factor deprivation. J. Neurosci., 21:5007-16, 2001). (B-D) Both cyclin E immunoreactivity (p<0.05) and apoptosis (p<0.05) are increased in DAT-negative neurons of primary midbrain cultures treated with parkin siRNA (and kainate) relative to control siRNA (and kainate). However, the increased cyclin E immunoreactivity and apoptosis are both less marked than in DAT-positive neurons (p<0.05 for both measures). DAT-negative neurons in midbrain cultures were analyzed as in FIG. 7; DAT-positive neuron data is from FIG. 7. Cytoplasmic parkin and cyclin E immunoreactivity (mean pixel density) in DAT-negative neurons were quantified in triplicate, across 9 fields of view at 20×. Data are shown as the mean±SEM. Statistical significance was assessed using one-way ANOVA with Tukey-Kramer post-hoc tests between each group. *=p<0.01; **=p<0.05; scale bar=150 μm (E-J) Human parkin lentiviral vectors efficiently infect cultured murine midbrain dopamine neurons. E13.5 murine midbrain cultures were infected with lentiviruses encoding human parkin or control (GFP), as described in FIG. 8.
Cerebellar granule neurons from P6 mice were purified and transfected essentially as described (Scheiffele et al., Neuroligin expressed in nonneuronal cells triggers presynaptic development in contacting axons. Cell, 101:657-69, 2000). Dissociated cortical neurons from E16.5 mice were prepared and cultured as described (Scheiffele et al., Neuroligin expressed in nonneuronal cells triggers presynaptic development in contacting axons. Cell, 10 1:657-69, 2000). Primary midbrain cultures were prepared from E13.5 mouse embryos, as described (Hynes et al., Induction of midbrain dopaminergic neurons by Sonic hedgehog. Neuron, 15:35-44, 1995). Cells were treated for 24 h with or without kainate (250 or 500 μM as indicated; Sigma) or MPP^+ (1 or 10 μM as indicated; Sigma), stained for 20 min with 0.5 μg/ml Hoechst 33342 (Sigma), and visualized by fluorescence microscopy. For granule cell assays, at least 100 cells in two 20× fields were scored in duplicate for GFP and/or Hoechst signal. For immunohistochemistry, cell cultures were washed twice with PBS, and fixed for 20 min with 4% (w/v) paraformaldehyde. Cells were blocked for 1 h, at room temperature, with 3% (v/v) goat serum in PBS, and then incubated overnight, at 4° C., with specific antibodies, as indicated. […]

[3] = system: cerebellar granule cells from P6 mice; test: parkin overexpression in kainate-treated cerebellar granule cells, cyclin E by Western blot / immunofluorescence / RT-PCR; details: kainate 500 μM for 24 h
Method: Cerebellar granule cells from post-natal day 6 (P6) mice were transfected in suspension with a bicistronic expression plasmid for wild-type parkin (along with GFP) or with vector (GFP alone), cultured at a density of 75,000 cells/cm^2 for 72 h, and then treated with or without 500 μM kainate for 24 h. (A) Cells were extracted directly with loading buffer, and lysates were analyzed by Western blotting, as indicated. (B-M) Granule cell cultures were fixed, stained with a specific antibody against cyclin E, and then visualized by fluorescence microscopy for cyclin E (red) and GFP (green). […]
as §1, with “microscopy.” for “microscopy. For midbrain culture experiments, DAT-specific immunoreactivity (pixels), and cytoplasmic parkin and cyclin E immunoreactivity (mean pixel density), were quantified in triplicate, across nine fields of view, at 20× using Image software (Scion).”

5′ UUCCAAACCGG AUGAGUGGdTdT 3′ [parkin siRNA]
cleaved-PARP, marker of apoptosis (Western blot) [1]: accumulation of cleaved poly (ADP-ribose) polymerase | cyclin E accumulation (Western blot) ([1]; vs control (DAT) siRNA): increased accumulation of cyclin E | parkin protein expression (Western blot) ([1]; vs control (DAT) siRNA): significantly reduced parkin expression | cyclin E accumulation in DAT-positive neurons ([2]; 25 nM siRNA, 250 μM kainate 24 h, vs control (SERT) siRNA): increased accumulation of cyclin E | apoptosis of DAT-positive neurons (Hoechst) ([2]; 25 nM siRNA, 250 μM kainate 24 h, vs control siRNA): increased apoptosis | DAT immunoreactivity in cell bodies and processes ([2]; 25 nM siRNA, in the presence of kainate, vs control siRNA): decreased DAT immunoreactivity | kainate sensitivity of DAT-negative neurons (cyclin E induction and apoptosis) ([2]; DAT-negative (primarily GABAergic) neurons vs DAT-positive population, p<0.05): did sensitize DAT-negative neurons to kainate toxicity, but to a significantly lesser extent | dopamine neuron sensitivity to MPP+ ([2]; MPP+ 10 μM): failed to alter dopamine neuron sensitivity | cyclin E or DAT immunoreactivity, siRNA alone ([2]; in the absence of kainate): failed to alter cyclin E or DAT immunoreactivity

C[n+]1ccc(-c2ccccc2)cc1 [MPP^+, 1-Methyl-4-phenylpyridinium, reference compound]
DAT immunoreactivity after toxin ([2]; MPP+ 10 μM, control siRNA-treated cultures): led to a reduction in DAT immunoreactivity comparable to the kainate treatment

C=C(C)[C@H]1CN[C@H](C(=O)O)[C@H]1CC(=O)O [kainate, kainic acid]
cyclin E accumulation in granule cell cultures after toxin [3]: led to the accumulation of cyclin E

Reference: US20040247586A1, “Parkin-associated complex for protecting post-mitotic neurons from excitotoxicity and uses thereof” (priority 2003, published 2004)
